# Test results published in patent publication US7671084B2 (Wyeth, priority 2004, dated 2010).
# Where a name gives a salt, the structure may show the parent alone. Read-outs that look alike come from different tables or passages of the source.
# Legend:
# [1] = target: T1, human ERβ (Homo sapiens, UniProt Q92731); test: Competition with [3H]-17β-estradiol for binding to ERβ; conditions: ligand binding domain of human ERβ in E. coli crude lysate, 2 nM [3H]-17β-estradiol, 5-15 hours at room temperature
# T1 construct: made in house; host or cells: E. coli (crude lysate)
# T1 sequence (Q92731 264-498 limits assumed): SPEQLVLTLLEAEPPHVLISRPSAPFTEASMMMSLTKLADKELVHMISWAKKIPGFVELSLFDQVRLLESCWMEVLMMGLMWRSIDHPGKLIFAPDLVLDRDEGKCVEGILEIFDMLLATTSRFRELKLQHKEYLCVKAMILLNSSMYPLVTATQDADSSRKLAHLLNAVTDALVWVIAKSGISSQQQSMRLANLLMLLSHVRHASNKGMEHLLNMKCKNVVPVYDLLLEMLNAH
# Experimental: Representative examples of the invention were evaluated for their ability to compete with 17β-estradiol for both ERα and ERβ. This test procedure provides the methodology for one to determine whether a particular compound binds to the estrogen receptor (and is therefore “estrogenic”) and whether there is selectivity for ERα or ERβ. […] 17β-estradiol is included as a standard reference for comparison. The procedure used is briefly described below. A crude lysate of E. coli expressing the estrogen receptor ligand binding domains (D, E, & F) of human ERα or ERβ was prepared. Both receptors and compounds were diluted in 1× Dulbecco's PBS (DPBS) supplemented with 1 mM EDTA. Using a high binding masked microtiter plate, 100 uL of receptor (1 uG/well) was combined with 2 nm [^3H]-17β-estradiol and various concentrations of compound. After between 5 and 15 hours at room temperature, the plates were washed with DPBS/1 mM EDTA and bound radioactivity determined by liquid scintillation counting. The IC50 is defined as the concentration of compound that decreases total 17β-estradiol binding by 50%.
# [2] = target: T2, human ERα (Homo sapiens, UniProt P03372); test: Competition with [3H]-17β-estradiol for binding to ERα; conditions: ligand binding domain of human ERα in E. coli crude lysate, 2 nM [3H]-17β-estradiol, 5-15 hours at room temperature
# T2 construct: made in house; host or cells: E. coli (crude lysate)
# T2 sequence (P03372 311-547 limits assumed): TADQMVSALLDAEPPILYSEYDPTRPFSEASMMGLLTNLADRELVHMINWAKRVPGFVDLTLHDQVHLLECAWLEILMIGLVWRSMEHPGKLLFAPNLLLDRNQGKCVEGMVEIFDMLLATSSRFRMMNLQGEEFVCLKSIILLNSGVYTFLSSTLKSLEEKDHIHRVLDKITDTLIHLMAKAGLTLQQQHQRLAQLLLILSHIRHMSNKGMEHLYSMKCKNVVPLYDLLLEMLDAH
# Experimental: Representative examples of the invention were evaluated for their ability to compete with 17β-estradiol for both ERα and ERβ. This test procedure provides the methodology for one to determine whether a particular compound binds to the estrogen receptor (and is therefore “estrogenic”) and whether there is selectivity for ERα or ERβ. The values are shown in the Table infra and are reported as IC50s. 17β-estradiol is included as a standard reference for comparison. The procedure used is briefly described below. A crude lysate of E. coli expressing the estrogen receptor ligand binding domains (D, E, & F) of human ERα or ERβ was prepared. Both receptors and compounds were diluted in 1× Dulbecco's PBS (DPBS) supplemented with 1 mM EDTA. Using a high binding masked microtiter plate, 100 uL of receptor (1 uG/well) was combined with 2 nm [^3H]-17β-estradiol and various concentrations of compound. After between 5 and 15 hours at room temperature, the plates were washed with DPBS/1 mM EDTA and bound radioactivity determined by liquid scintillation counting. The IC50 is defined as the concentration of compound that decreases total 17β-estradiol binding by 50%.
Compound,melting point [°C],IC50 [1] [nM],IC50 ([2]; read-out: ERα (nM) IC50) [nM],IC50 ([2]; read-out: ERα IC50 (cell prints uM)) [nM]
"Oc1ccc2c(c1)COc1cc3cc(O)ccc3cc1-2 [Example 4, 5H-Dibenzo[c,g]chromene-3,9-diol]",231 to 233,7.9,63,–
"Oc1ccc2c(c1)COc1ccc3ccc(O)cc3c1-2 [Example 5, 5H-Dibenzo[c,f]chromene-3,11-diol]",199 to 201,–,–,–
"Oc1ccc2c(c1)COc1cc3c(Cl)c(O)ccc3cc1-2 [Example 6, 8-Chloro-5H-dibenzo[c,g]chromene-3,9-diol]",212 to 214,0.53,21,–
"Oc1ccc2c(c1)COc1c-2cc2ccc(O)cc2c1Cl [Example 12, 7-Chloro-5H-dibenzo[c,g]chromene-3,9-diol]",–,1.5,15,–
"Oc1ccc2c(c1)COc1c-2cc2ccc(O)cc2c1Br [Example 13, 7-Bromo-5H-dibenzo[c,g]chromene-3,9-diol]",–,1.2,13,–
"N#Cc1c2c(cc3ccc(O)cc13)-c1ccc(O)cc1CO2 [Example 14, 3,9-Dihydroxy-5H-dibenzo[c,g]chromene-7-carbonitrile]",> 280,2.7,32,–
"COc1c2c(cc3ccc(O)cc13)-c1ccc(O)cc1CO2 [Example 15, 7-Methoxy-5H-dibenzo[c,g]chromene-3,9-diol]",–,4.3,169,–
"C=Cc1c2c(cc3ccc(O)cc13)-c1ccc(O)cc1CO2 [Example 16, 7-Vinyl-5H-dibenzo[c,g]chromene-3,9-diol]",–,2,44,–
"COc1c2c(c(Br)c3ccc(O)cc13)-c1ccc(O)cc1CO2 [Example 19, 12-Bromo-7-methoxy-5H-dibenzo[c,g]chromene-3,9-diol]",–,3.3,12,–
"COc1c2c(c(Cl)c3ccc(O)cc13)-c1ccc(O)cc1CO2 [Example 20, 12-Chloro-7-methoxy-5H-dibenzo[c,g]chromene-3,9-diol]",–,1.4,13,–
"Cc1c2c(cc3ccc(O)cc13)-c1ccc(O)cc1CO2 [Example 21, 7-Methyl-5H-dibenzo[c,g]chromene-3,9-diol]",224 to 226,1,17,–
"OCc1ccccc1-c1c2c(cc3ccc(O)cc13)-c1ccc(O)cc1CO2 [Example 22, 7-[2-(Hydroxymethyl)phenyl]-5H-dibenzo[c,g]chromene-3,9-diol]",171 to 173,349,531,–
"Oc1ccc2c(c1)COc1c-2cc2ccc(O)cc2c1-c1ccccc1 [Example 23, 7-Phenyl-5H-dibenzo[c,g]chromene-3,9-diol]",225 to 227,4.1,137,–
"Cc1ccccc1-c1c2c(cc3ccc(O)cc13)-c1ccc(O)cc1CO2 [Example 24, 7-(2-Tolyl)-5H-dibenzo[c,g]chromene-3,9-diol]",193 to 196,11,487,–
"Cc1cccc(-c2c3c(cc4ccc(O)cc24)-c2ccc(O)cc2CO3)c1 [Example 25, 7-(3-Tolyl)-5H-dibenzo[c,g]chromene-3,9-diol]",219 to 222,4.2,117,–
"Cc1ccc(-c2c3c(cc4ccc(O)cc24)-c2ccc(O)cc2CO3)cc1 [Example 26, 7-(4-Tolyl)-5H-dibenzo[c,g]chromene-3,9-diol]",238 to 240,4.1,137,–
"COc1ccc(-c2c3c(cc4ccc(O)cc24)-c2ccc(O)cc2CO3)cc1 [Example 27, 7-(4-Methoxyphenyl)-5H-dibenzo[c,g]chromene-3,9-diol]",200 to 203,9.8,702,–
"Oc1ccc2c(c1)COc1c-2cc2ccc(O)cc2c1-c1ccc(Cl)cc1 [Example 28, 7-(4-Chlorophenyl)-5H-dibenzo[c,g]chromene-3,9-diol]",239 to 242,9.3,320,–
"Oc1ccc2c(c1)COc1c-2cc2ccc(O)cc2c1-c1ccc(F)cc1 [Example 29, 7-(4-Fluorophenyl)-5H-dibenzo[c,g]chromene-3,9-diol]",229 to 232,6.4,298,–
"Oc1ccc2c(c1)COc1c-2cc2ccc(O)cc2c1-c1cccs1 [Example 30, 7-Thien-2-yl-5H-dibenzo[c,g]chromene-3,9-diol]",233 to 236,1.4,75,–
"Oc1ccc2c(c1)COc1c-2cc2ccc(O)cc2c1-c1ccsc1 [Example 31, 7-Thien-3-yl-5H-dibenzo[c,g]chromene-3,9-diol]",159 to 161,4.1,152,–
"Oc1ccc2c(c1)COc1c-2cc2ccc(O)cc2c1-c1cccc(F)c1 [Example 32, 7-(3-Fluorophenyl)-5H-dibenzo[c,g]chromene-3,9-diol]",225 to 227,3.3,93,–
"Oc1ccc2c(c1)COc1c-2cc2ccc(O)cc2c1-c1cccc(Cl)c1 [Example 33, 7-(3-Chlorophenyl)-5H-dibenzo[c,g]chromene-3,9-diol]",243 to 246,18,63,–
COc1ccc(-c2c3c(cc4ccc(O)cc24)-c2ccc(O)cc2CO3)cn1 [Example 51],–,22,764,–

# Other lines, results leading:
melting point [°C],IC50 [1] [nM],IC50 ([2]; read-out: ERα (nM) IC50) [nM],IC50 ([2]; read-out: ERα IC50 (cell prints uM)) [nM],Compound
> 250,–,–,–,"Oc1ccc2c(c1)COc1c-2cc2ccc(O)cc2c1-c1ccncc1 (as salt: HCl) [Example 37, 7-(4-Pyridyl)-5H-dibenzo[c,g]chromene-3,9-diol]"
220 to 223,17,434,–,"COc1cccc(-c2c3c(cc4ccc(O)cc24)-c2ccc(O)cc2CO3)c1 [Example 34, 7-(3-Methoxyphenyl)-5H-dibenzo[c,g]chromene-3,9-diol]"
220 to 222,9.7,26,–,"Oc1ccc2c(c1)COc1c-2cc2ccc(O)cc2c1-c1ccccc1Cl [Example 35, 7-(2-Chlorophenyl)-5H-dibenzo[c,g]chromene-3,9-diol]"
235 to 237,6.2,206,–,"Oc1ccc2c(c1)COc1c-2cc2ccc(O)cc2c1-c1ccc(F)c(F)c1 [Example 36, 7-(3,4-Difluorophenyl)-5H-dibenzo[c,g]chromene-3,9-diol]"
–,3.05,–,> 5000,"Oc1ccc2c(c1)COc1c-2cc2ccc(O)cc2c1-c1ccncc1 [Example 37, 7-(4-Pyridyl)-5H-dibenzo[c,g]chromene-3,9-diol]"
240 to 242,1.4,73,–,"Oc1ccc2c(c1)COc1c-2cc2ccc(O)cc2c1-c1ccccc1F [Example 38, 7-(2-Fluorophenyl)-5H-dibenzo[c,g]chromene-3,9-diol]"
> 220,–,–,–,"COc1ccncc1-c1c2c(cc3ccc(O)cc13)-c1ccc(O)cc1CO2 [Example 51, 7-(4-Methoxy-3-Pyridyl)-5H-dibenzo[c,g]chromene-3,9-diol]"
–,60,1600,–,"Oc1ccc2c(c1)COc1c-2cc2ccc(O)cc2c1-c1ncccn1 [Example 52, 7-(Pyrimidyl)-5H-dibenzo[c,g]chromene-3,9-diol]"
143 to 145,835,–,–,"Oc1ccc2c(c1)COc1c-2cc2ccc(O)cc2c1-c1ccc(Cl)c(Cl)c1 [Example 55, 7-(3,4-Dichlorophenyl)-5H-dibenzo[c,g]chromene-3,9-diol]"
–,–,172,–,"Oc1ccc2c(c1)COc1c-2cc2ccc(O)cc2c1-c1cccc2ccccc12 [Example 61, 7-(Naphthyl)-5H-dibenzo[c,g]chromene-3,9-diol]"
220 to 223,–,–,–,"Cc1cc(C)cc(-c2c3c(cc4ccc(O)cc24)-c2ccc(O)cc2CO3)c1 [Example 63, 7-(3,5-Dimethylphenyl)-5H-dibenzo[c,g]chromene-3,9-diol]"
